Calls of active or inactive are those of the source. The rule behind the calls is not given here.
How the values were obtained:
Trypanosoma brucei [1] = assay: Antitrypanosomal activity against Trypanosoma brucei assessed as parasite growth inhibition in presence of 10% FBS; format: functional, organism-based
[2] = Half life in mouse hepatocytes; format: ADME, cell-based, Hepatocyte
Trypanosoma brucei [3] = assay: Antitrypanosomal activity against Trypanosoma brucei assessed as parasite growth inhibition in presence of 50% mouse serum; format: functional, organism-based
[4] = system: Trypanosoma brucei rhodesiense; assay: […] activity against Trypanosoma brucei rhodesiense assessed as reduction in parasite viability after 2 hrs by time kill assay; format: functional, organism-based
[5] = Half life in human hepatocytes; format: ADME, cell-based, Hepatocyte
[6] = Protein binding in mouse plasma assessed as unbound fraction; format: ADME, cell-free
[7] = Oral bioavailability in C57BL6 mouse at 30 mg/kg; format: ADME, organism-based; conditions: in vivo
[8] = Permeability in porcine brain endothelial cells/rat astrocytes model system; format: ADME, cell-based; conditions: read-out: permeability
[9] = Cmax in C57BL6 mouse at 30 mg/kg, ip; format: ADME, organism-based; set-up: dose 30 mg/kg, route intraperitoneal; conditions: in vivo
[10] = (§1) Cytotoxicity against human HeLa cells assessed as reduction in cell viability; format: cell-based; conditions: HeLa cells
[11] = (§2) Cytotoxicity against HUVEC assessed as reduction in cell viability; format: cell-based; conditions: human
HeLa = assay: as §1; format: cell-based; conditions: hela
HUVEC = assay: as §2; format: cell-based; conditions: human

Row | SMILES | EC50 (Trypanosoma brucei [1]) [nM] | other results
1 | COc1ccc2nc(C(F)(F)F)n(C(=O)N3CCN(CC4CCOC4)C[C@H]3c3ncc(-c4cc5ccccc5nc4OC)[nH]3)c2c1 (stereo partly specified) | 9 | 
2 | COc1ccc2nc(C(F)(F)F)n(CC(=O)N3CCS(=O)(=O)CC3c3ncc(-c4cc5ccccc5nc4OC)[nH]3)c2c1 (stereo unspecified) | 355 | 
3 | COc1ccc2nc(C(F)(F)F)n(CC(=O)N3CC[C@H](NCC4CCOC4)C[C@H]3c3ncc(-c4cc5ccccc5nc4OC)[nH]3)c2c1 (stereo partly specified) | 17 | 
4 | COc1ccc2nc(C(F)(F)F)n(C(=O)N3CCN(Cc4nccs4)C[C@H]3c3ncc(-c4cc5ccccc5nc4OC)[nH]3)c2c1 | 2 | 
5 | COc1nc2ccccc2cc1-c1cnc([C@@H]2CN(CC3CCOC3)CCN2C(=O)n2c(C(F)(F)F)nc3ccccc32)[nH]1 (stereo partly specified) | 20 | half-life [2]: 0.8 h; EC50 (Trypanosoma brucei [3]): 850 nM; Activity [4]: Active; half-life [5]: 2.6 h; fraction unbound [6]: 0.0204; bioavailability [7]: 133%; Papp [8]: 8.6 ×10⁻⁶ cm/s; Cmax [9]: 6.9 µM
6 | COc1nc2ccccc2cc1-c1cnc([C@@H]2CN(CC3CCOC3)CCN2C(=O)n2c(C)nc3ccccc32)[nH]1 (stereo partly specified) | 163 | 
7 | COc1ccc2nc(C(F)(F)F)n(CC(=O)N3CCOCC3c3ncc(-c4cc5ccccc5nc4OC)[nH]3)c2c1 (stereo unspecified) | 286 | 
8 | COc1ccc2nc(C)n(C(=O)N3CCN(CC4CCOC4)C[C@H]3c3ncc(-c4cc5ccccc5nc4OC)[nH]3)c2c1 (stereo partly specified) | 32 | 
9 | COc1ccc2nc(C(F)(F)F)n(CC(=O)N3CC[C@H](NC4CCOC4)C[C@H]3c3ncc(-c4cc5ccccc5nc4OC)[nH]3)c2c1 (stereo partly specified) | 7 | half-life [2]: 4 h; EC50 (Trypanosoma brucei [3]): 232 nM; half-life [5]: 3.1 h; CC50 [10]: 7490 nM; CC50 [11]: 3680 nM; fraction unbound [6]: 0.047; bioavailability [7]: 103%; Cmax [9]: 5 µM
10 | COc1ccc2nc(C(F)(F)F)n(CC(=O)N3CCN(CC4CCOC4)CCC3c3ncc(-c4cc5ccccc5nc4OC)[nH]3)c2c1 (stereo unspecified) | 51 | 
11 | COc1ccc2[nH]c(C)c(CC(=O)N3CCN(CC4CCOC4)CC3c3ncc(-c4ccc5ccccc5c4)[nH]3)c2c1 (stereo unspecified) |  | Activity (HeLa): Non-Toxic; Activity (HUVEC): Non-Toxic
12 | COc1ccc2nc(C(F)(F)F)n(CC(=O)N3CC[C@@H](N(C)C)C[C@H]3c3ncc(-c4cc5ccccc5nc4OC)[nH]3)c2c1 | 659 | 
13 | COc1ccc2nc(C(F)(F)F)n(CC(=O)N3CC[C@H](N(C)C)C[C@H]3c3ncc(-c4cc5ccccc5nc4OC)[nH]3)c2c1 | 98 | 
14 | COc1ccc2nc(C(F)(F)F)n(CC(=O)N3CCCCC3c3ncc(-c4cc5ccccc5nc4OC)[nH]3)c2c1 (stereo unspecified) | 73 | 
15 | COc1ccc2nc(C(F)(F)F)n(C(=O)N3CCN(C4CCN(C)CC4)C[C@H]3c3ncc(-c4cc5ccccc5nc4OC)[nH]3)c2c1 | 180 | 
16 | COc1ccc2[nH]c(C)c(C(=O)N3CCN(CC4CCOC4)C[C@H]3c3ncc(-c4cc5ccccc5nc4OC)[nH]3)c2c1 (mixture of isomers) | 23 | 
17 | COc1nc2ccccc2cc1-c1cnc([C@@H]2CN(CC3CCOC3)CCN2C(=O)n2c(C)nc3cncnc32)[nH]1 (stereo partly specified) | 384 | 
18 | COc1ccc2nc(C(F)(F)F)n(C(=O)N3CCN(Cc4cnccn4)C[C@H]3c3ncc(-c4cc5ccccc5nc4OC)[nH]3)c2c1 | 6 | 
19 | COc1ccc2nc(C(F)(F)F)n(CC(=O)N3C[C@H](NC4CCOC4)CC[C@H]3c3ncc(-c4cc5ccccc5nc4OC)[nH]3)c2c1 (stereo partly specified) | 11 | 

From ChEMBL document CHEMBL4627383, “Optimization of 2-(1H-imidazo-2-yl)piperazines series of Trypanosoma brucei growth inhibitors as potential treatment for the second stage of HAT” (Bioorg Med Chem Lett, 2020)
